# Values quoted from earlier work, collected in patent US20180140599A1, “PREVENTION AND/OR TREATMENT OF CONTRAST-INDUCED ACUTE KIDNEY INJURY” (Saghmos Therapeutics, Inc., priority 2016, published 2018).
# Test system: patients with high serum creatinine levels undergoing coronary angiography/angioplasty
# Settings: four published Phase 2 trials; compared with isotonic saline
smiles,measurement,value
COc1ccc(CN2CCNCC2)c(OC)c1OC [Trimetazidine],reducing the risk of contrast-induced nephropathy (CIN),more effective than isotonic saline in reducing the risk of contrast-induced nephropathy (CIN)
